Laboratory results published in patent US8673912B2, “Crystalline Forms on N-[3-fluoro-4-({6-(methyloxy)-7-[(3-morpholin-4-ylpropyl)oxy]-quinolin-4-yl}oxy)phenyl]-N′-(4-fluorophenyl)cyclopropane-1,1-dicarboxamide” (Exelixis, Inc., priority 2009, dated 2014).

How the values were obtained:
Format in all cases: physicochemical
[1] = Gravimetric Vapor Sorption Study (GVS); conditions: crystalline Form A prepared in Example 1.1.2
Experimental: The GVS study was run using a standard procedure. Samples were run on a Hiden IGASorp moisture sorption analyzer running CFRSorp software. Sample sizes were typically 10 mg. A moisture adsorption desorption isotherm was performed as outlined below. All samples were loaded/unloaded at typical room humidity and temperature (40% RH, 25° C.) and analyzed afterwards by XRPD. The standard isotherm run is a cycle starting at 40% RH→90%→Dry finishing at 35% RH at 25° C. and 10% RH intervals.

[2] = Karl Fisher water content determination; conditions: crystalline Form A prepared in Example 1.1.2; measured in duplicate
Experimental: The study was done using a standard procedure. Water contents were measured on a Mettler Toledo DL39 Coulometer using Hydranal AG Oven reagent and an argon purge. Samples were introduced into the vessel as solids weighed out onto a platinum TGA pan which was connected to a subaseal via tweezers to avoid water ingress. Approximately 10 mg of sample was used per titration and each analysis was performed in duplicate. The water content of crystalline Compound (I) prepared in Example 1.1.2 was measured in duplicate and gave an average value of 0.1%.

[3] = Relative thermodynamic stability of crystalline forms; conditions: forms A and B are enantiotropically related
[4] = Retention of crystalline form in final tablet (XRPD); conditions: micronized, high shear wet granulation, compression, optional aqueous film coat
Experimental: The tablets in this example were prepared with an optional aqueous film coat. Preparation of the intra-granular component involved a high shear wet granulation to make granules to be used for further processing. All components used are conventional for the wet granulation process except for the sodium lauryl sulfate which was added as a bioenhancement agent to enhance the bioavailability of the drug substance. The crystalline Compound (I), form B, was used in a micronized form for bioenhancement, which means that the density of the drug substance is low making it difficult to handle and process. High shear wet granulation is used to produce dense material that is easier to process and make into tablets. The preparation of the extra-granular component was a compression step to make the tablets out of the granules and the added excipients. The excipients used are conventional to allow for the formation of the tablet. The crystalline form of Compound 1, Form B, was retained in the final tablet as confirmed by XRPD.

weight gain (GVS) ([1]; 25° C. and 90% humidity)	reanalysis of the sample by XRPD after GVS ([1]; after isotherm cycle 40% RH to 90% to dry to 35% RH at 25° C.)	water content (Karl Fisher), average value [2]	temperatures at which the form is believed to be the most thermodynamically stable form [3]	crystalline form in the final tablet as confirmed by XRPD [4]	Structure (SMILES)
0.5%	no change in form	0.1%	–	–	COc1cc2c(Oc3ccc(NC(=O)C4(C(=O)Nc5ccc(F)cc5)CC4)cc3F)ccnc2cc1OCCCN1CCOCC1 [Compound (I), N-[3-fluoro-4-({6-(methyloxy)-7-[(3-morpholin-4-ylpropyl)oxy]quinolin-4-yl}oxy)phenyl]-N′-(4-fluorophenyl)cyclopropane-1,1-dicarboxamide]
–	–	–	less than 75 °C	–	COc1cc2c(Oc3ccc(NC(=O)C4(C(=O)Nc5ccc(F)cc5)CC4)cc3F)ccnc2cc1OCCCN1CCOCC1 [Form A, N-[3-fluoro-4-({6-(methyloxy)-7-[(3-morpholin-4-ylpropyl)oxy]quinolin-4-yl}oxy)phenyl]-N′-(4-fluorophenyl)cyclopropane-1,1-dicarboxamide]
–	–	–	greater than 75 °C	retained	COc1cc2c(Oc3ccc(NC(=O)C4(C(=O)Nc5ccc(F)cc5)CC4)cc3F)ccnc2cc1OCCCN1CCOCC1 [Form B, N-[3-fluoro-4-({6-(methyloxy)-7-[(3-morpholin-4-ylpropyl)oxy]quinolin-4-yl}oxy)phenyl]-N′-(4-fluorophenyl)cyclopropane-1,1-dicarboxamide]
